{
  "source": "paper PMC10574094",
  "about": "“Discovery of a SHP2 Degrader with In Vivo Anti-Tumor Activity” (Molecules, 2023)",
  "key": {"other PTPs": {"system": "other PTPs", "assay": "PTP inhibition assay, panel of representative PTP family members", "type": "biochemical", "conditions": "up to 10 µM P9 concentration", "method": "PTP activity was assayed using p-nitrophenyl phosphate (pNPP) as a substrate in DMG buffer (50 mM DMG, pH 7.0, 1 mM EDTA, 150 mM NaCl, 2 mM DTT, 0.1 mg/mL BSA) at 25 °C. The assays were performed in 96-well plates. To determine the IC50 values, the reaction was initiated by the addition of enzyme (final concentration = 10 nM) to a reaction mixture (0.2 mL) containing pNPP (at a final concentration close to the Kms of tested enzymes, in specific: 0.05 mM for CDC-14A; 0.5 mM for FAP-1; 2 mM for TC-PTP, PTP1B, STEP, LWM-PTP, and PTPα; 3 mM for SHP1; 4 mM for Laforin; 5 mM for LYP, CD45, and VHR; 6 mM for PTP-MEG2 and HePTP) with various concentrations of inhibitors. The reaction rate was measured using a SpectraMax Plus 384 Microplate Spectrophotometer (Molecular Devices, San Jose, CA, USA). Data were fitted using the SigmaPlot Enzyme Kinetics Module (Systat Software, Inc., San Jose, CA, USA)."}, "[1]": {"assay": "Pharmacokinetics in mice, single IP injection", "type": "in vivo", "conditions": "for Plasma concentration / concentration at 0.5 h / concentration at 1 h / concentration at 2 h / concentration at 3 h / concentration at 6 h: individual animals; for concentration at 0.5 h / concentration at 1 h / concentration at 2 h / concentration at 3 h / concentration at 6 h / Cmax / half-life / AUC / Tmax: plasma; for concentration at 0.5 h / concentration at 1 h / concentration at 2 h / concentration at 3 h / concentration at 6 h: intraperitoneal; for Cmax / half-life / AUC / Tmax / t1/2: mice", "method": "Experiments on mice were carried out in accordance with the regulations of the Institutional Animal Care and Use Committees at Purdue University. All mice were housed under pathogen-free conditions in the animal facility and received autoclaved water and food. Eight to ten weeks-old Nude mice were used in the study.\nFor pharmacokinetic studies, mice were administered a single dose of P9 at 25 or 50 mg/kg via IP injection. Blood samples were collected through the tail vein at indicated time points after injection. Isoflurane was used as an anesthetic. All blood samples were centrifuged at 1500 g for 5 min, and plasma was separated and stored at –80 °C until analysis by a validated method based on reversed-phase liquid chromatography coupled to mass-spectrometric detection (LC/MS) using a previously published procedure."}, "[2]": {"conditions": "Nude, mouse, ip, 25 mg/kg, single IP 25 mg/kg"}, "[3]": {"conditions": "Nude, mouse, ip, 50 mg/kg, single IP 50 mg/kg"}, "[4]": {"conditions": "Nude, mouse, single IP 25 mg/kg"}, "[5]": {"conditions": "Nude, mouse, single IP 50 mg/kg"}},
  "note": "Where “and” joins values, the source holds several entries; their conditions need not be identical. Identical values can stand only once.",
  "data": [
    {"smiles": "Cc1ncsc1-c1ccc([C@H](C)NC(=O)[C@@H]2C[C@@H](O)CN2C(=O)[C@@H](NC(=O)CCCCCCCCCN2CCN(C(=O)CCCCCC3(CN)CCN(c4cnc(Sc5cccc(Cl)c5Cl)c(N)n4)CC3)CC2)C(C)(C)C)cc1", "note": "[P9, (2S,4R)-1-((S)-2-(10-(4-(6-(1-(6-amino-5-((2,3-dichlorophenyl)thio)pyrazin-2-yl)-4-(aminomethyl)piperidin-4-yl)hexanoyl)piperazin-1-yl)decanamido)-3,3-dimethylbutanoyl)-4-hydroxy-N-((S)-1-(4-(4-methylthiazol-5-yl)phenyl)ethyl)pyrrolidine-2-carboxamide]", "values": [
      {"measurement": "inhibition towards other PTPs", "setting": "other PTPs", "value": "no significant inhibition"},
      {"measurement": "Plasma concentration", "setting": "[1]; 25 mg/kg IP, 0.5 h", "value": "520 nM and 750 nM"},
      {"measurement": "Plasma concentration", "setting": "[1]; 25 mg/kg IP, 1 h", "value": "1200 nM and 1320 nM"},
      {"measurement": "Plasma concentration", "setting": "[1]; 25 mg/kg IP, 2 h", "value": "1090 nM and 930 nM"},
      {"measurement": "Plasma concentration", "setting": "[1]; 25 mg/kg IP, 3 h", "value": "620 nM and 590 nM"},
      {"measurement": "Plasma concentration", "setting": "[1]; 25 mg/kg IP, 6 h", "value": "410 nM and 390 nM"},
      {"measurement": "Plasma concentration", "setting": "[1]; 25 mg/kg IP, 24 h", "value": "130 nM and 180 nM and 60 nM"},
      {"measurement": "Plasma concentration", "setting": "[1]; 50 mg/kg IP, 0.5 h", "value": "1820 nM and 1960 nM"},
      {"measurement": "Plasma concentration", "setting": "[1]; 50 mg/kg IP, 1 h", "value": "2700 nM and 2550 nM"},
      {"measurement": "Plasma concentration", "setting": "[1]; 50 mg/kg IP, 2 h", "value": "1760 nM and 1700 nM"},
      {"measurement": "Plasma concentration", "setting": "[1]; 50 mg/kg IP, 3 h", "value": "1220 nM and 1150 nM"},
      {"measurement": "Plasma concentration", "setting": "[1]; 50 mg/kg IP, 6 h", "value": "700 nM and 680 nM"},
      {"measurement": "Plasma concentration", "setting": "[1]; 50 mg/kg IP, 24 h", "value": "160 nM and 240 nM and 100 nM"},
      {"measurement": "concentration at 0.5 h", "setting": "[1]; Nude, mouse, 25 mg/kg, 25 mg/kg IP, 0.5 h", "value": 560, "unit": "nM"},
      {"measurement": "concentration at 1 h", "setting": "[1]; Nude, mouse, 25 mg/kg, 25 mg/kg IP, 1 h", "value": 1020, "unit": "nM"},
      {"measurement": "concentration at 2 h", "setting": "[1]; Nude, mouse, 25 mg/kg, 25 mg/kg IP, 2 h", "value": 920, "unit": "nM"},
      {"measurement": "concentration at 3 h", "setting": "[1]; Nude, mouse, 25 mg/kg, 25 mg/kg IP, 3 h", "value": 550, "unit": "nM"},
      {"measurement": "concentration at 6 h", "setting": "[1]; Nude, mouse, 25 mg/kg, 25 mg/kg IP, 6 h", "value": 360, "unit": "nM"},
      {"measurement": "concentration at 0.5 h", "setting": "[1]; Nude, mouse, 50 mg/kg, 50 mg/kg IP, 0.5 h", "value": 1760, "unit": "nM"},
      {"measurement": "concentration at 1 h", "setting": "[1]; Nude, mouse, 50 mg/kg, 50 mg/kg IP, 1 h", "value": 2510, "unit": "nM"},
      {"measurement": "concentration at 2 h", "setting": "[1]; Nude, mouse, 50 mg/kg, 50 mg/kg IP, 2 h", "value": 1660, "unit": "nM"},
      {"measurement": "concentration at 3 h", "setting": "[1]; Nude, mouse, 50 mg/kg, 50 mg/kg IP, 3 h", "value": 1030, "unit": "nM"},
      {"measurement": "concentration at 6 h", "setting": "[1]; Nude, mouse, 50 mg/kg, 50 mg/kg IP, 6 h", "value": 550, "unit": "nM"},
      {"measurement": "Cmax", "setting": "[1]; [2]", "value": "1180 ± 130", "unit": "nM"},
      {"measurement": "half-life", "setting": "[1]; [2]", "value": "3.71 ± 0.72", "unit": "h"},
      {"measurement": "Cmax", "setting": "[1]; [3]", "value": "2510 ± 190", "unit": "nM"},
      {"measurement": "half-life", "setting": "[1]; [3]", "value": "3.01 ± 0.48", "unit": "h"},
      {"measurement": "AUC", "setting": "[1]; [4]", "value": "8.51 ± 0.6", "unit": "µM·h"},
      {"measurement": "Tmax", "setting": "[1]; [4]", "value": 2, "unit": "h"},
      {"measurement": "AUC", "setting": "[1]; [5]", "value": "15.1 ± 0.99", "unit": "µM·h"},
      {"measurement": "Tmax", "setting": "[1]; [5]", "value": 2, "unit": "h"},
      {"measurement": "Cmax", "setting": "[1]; single IP 25 mg/kg, 25 mg/kg", "value": "1200 ± 100", "unit": "nM"},
      {"measurement": "t1/2", "setting": "[1]; single IP 25 mg/kg, 25 mg/kg", "value": "3.7 ± 0.7", "unit": "h"},
      {"measurement": "Cmax", "setting": "[1]; single IP 50 mg/kg, 50 mg/kg", "value": "2500 ± 200", "unit": "nM"},
      {"measurement": "t1/2", "setting": "[1]; single IP 50 mg/kg, 50 mg/kg", "value": "3.0 ± 0.5", "unit": "h"}
    ]}
  ]
}
